Reference: patent US7094895B2, “Tyrosyl derivatives and their use as P2X7 receptor modulators” (King Pharmaceuticals Research & Development, Inc., priority 2001, dated 2006)

target: T1, P2X7 receptor (Homo sapiens, UniProt Q99572); experiment: not given; details: at the concentration of 500 nM; cited from earlier work
T1 sequence (Q99572 1-595): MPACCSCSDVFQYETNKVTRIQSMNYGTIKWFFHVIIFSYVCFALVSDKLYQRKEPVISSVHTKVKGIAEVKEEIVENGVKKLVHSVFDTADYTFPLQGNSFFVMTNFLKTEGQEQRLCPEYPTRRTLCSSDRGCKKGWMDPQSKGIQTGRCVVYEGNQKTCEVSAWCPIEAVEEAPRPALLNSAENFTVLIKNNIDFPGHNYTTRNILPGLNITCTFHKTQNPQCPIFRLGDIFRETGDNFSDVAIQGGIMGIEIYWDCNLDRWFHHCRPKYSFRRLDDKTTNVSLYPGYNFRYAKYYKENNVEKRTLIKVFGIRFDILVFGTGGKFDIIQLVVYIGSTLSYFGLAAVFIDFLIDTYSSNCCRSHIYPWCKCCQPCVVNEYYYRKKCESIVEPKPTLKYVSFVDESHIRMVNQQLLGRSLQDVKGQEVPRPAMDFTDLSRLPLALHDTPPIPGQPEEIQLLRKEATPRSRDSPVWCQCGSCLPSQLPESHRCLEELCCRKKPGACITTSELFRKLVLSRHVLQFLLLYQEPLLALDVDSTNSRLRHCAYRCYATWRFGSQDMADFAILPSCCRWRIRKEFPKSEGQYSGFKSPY

Row | Molecule | inhibition of the P2X7 receptor
1 | CN([C@@H](Cc1ccc(OS(=O)(=O)c2cccc3cnccc23)cc1)C(=O)N1CCN(c2ccccc2)CC1)S(=O)(=O)c1cccc2cnccc12 [KN62, 1-N,0-(bis(1,5-isoquinolinesulfonyl)-N-methyl-L-tyrosyl)-4-phenylpiperazine] | complete inhibition

target: T1, P2X7 receptor; experiment: Inhibition of ATP-induced calcium influx in human monocytes (fura-2/AM); assay type: cell-based; set-up: endogenous in cells; host or cells: human monocytes; details: inhibiting calcium influx in human monocytes in the presence of 1 mM ATP; read-out: P2X7 Antagonist Activity IC50
Procedure: Table 1 illustrates the IC50 values for compounds toward inhibiting calcium influx in human monocytes in the presence of 1 mM ATP.
Ca^2+ measurements. Changes in Ca^2+ were measured with the fluorescent indicator fura-2/AM (Molecular Probes, Inc., Eugene, Oreg.) as described previously.^32 Briefly, cells were loaded with […] of fura-2/AM and incubated in a thermostat-controlled (37° C.) and magnetically stirred fluorometer cuvette (model LS50, Perkin-Elmer Ltd., Beaconsfield, UK). Intracellular Ca^2+ concentration was determined with the 340/380 excitation ratio at an emission wavelength of 500 nm. All experiments were repeated three times.

Row | IC50 [nM] | Molecule
2 | 1120 | 1-[(S)-N,O-bis-(isoquinolinesulfonyl)-N-methyl-tyrosyl]-4-(2,3-dimethylphenyl)-piperazine
3 | 15.8 | 1-[(S)-N,O-bis-(isoquinolinesulfonyl)-N-methyl-tyrosyl]-4-(2-chlorophenyl)-piperazine
4 | 84.1 | 1-[(S)-N,O-bis-(isoquinolinesulfonyl)-N-methyl-tyrosyl]-4-(2-methoxy-phenyl)-piperazine
5 | 33.9 | 1-[(S)-N,O-bis-(isoquinolinesulfonyl)-N-methyl-tyrosyl]-4-(3,4-dichloro-phenyl)-piperazine
6 | 14.1 | 1-[(S)-N,O-bis-(isoquinolinesulfonyl)-N-methyl-tyrosyl]-4-(3-chlorophenyl)-piperazine
7 | 31.1 | 1-[(S)-N,O-bis-(isoquinolinesulfonyl)-N-methyl-tyrosyl]-4-(3-trifluoromethyl-phenyl)-piperazine
8 | 101 | 1-[(S)-N,O-bis-(isoquinolinesulfonyl)-N-methyl-tyrosyl]-4-(4-aminophenyl)-piperazine
9 | 1.33 | 1-[(S)-N,O-bis-(isoquinolinesulfonyl)-N-methyl-tyrosyl]-4-(4-fluorophenyl)-piperazine
10 | 132 | 1-[(S)-N,O-bis-(isoquinolinesulfonyl)-N-methyl-tyrosyl]-4-(4-methoxy-phenyl)-piperazine
11 | 5.76 | 1-[(S)-N,O-bis-(isoquinolinesulfonyl)-N-methyl-tyrosyl]-4-(4-nitrophenyl)-piperazine
12 | 13.5 | 1-[(S)-N,O-bis-(isoquinolinesulfonyl)-N-methyl-tyrosyl]-4-(p-tolyl)-piperazine
13 | 170 | 1-[(S)-N,O-bis-(isoquinolinesulfonyl)-N-methyl-tyrosyl]-4-(pyridin-2-yl)-piperazine
14 | 79.8 | 1-[(S)-N,O-bis-(isoquinolinesulfonyl)-N-methyl-tyrosyl]-4-(pyrimidin-2-yl)-piperazine
15 | 21 | 1-[(S)-N,O-bis-(isoquinolinesulfonyl)-N-methyl-tyrosyl]-4-benzylpiperazine
16 | 65.3 | 1-[(S)-N,O-bis-(isoquinolinesulfonyl)-N-methyl-tyrosyl]-4-benzylpiperidine
17 | 15.1 | 1-[(S)-N,O-bis-(isoquinolinesulfonyl)-N-methyl-tyrosyl]-4-o-tolyl-piperazine
18 | 600 | 1-[(S)-N,O-bis-(isoquinolinesulfonyl)-N-methyl-tyrosyl]-4-phenethyl-piperazine
19 | 6.02 | 1-[(S)-N,O-bis-(isoquinolinesulfonyl)tyrosyl]-4-(4-fluorophenyl)-piperazine
20 | 28.8 | 1-[(S)-N,O-bis-(isoquinolinesulfonyl)tyrosyl]-4-(o-tolyl)-piperazine
21 | 9120 | Cc1ccccc1N1CCN(C(=O)[C@H](Cc2ccc(OS(=O)(=O)c3cccnc3)cc2)N(C)S(=O)(=O)c2cccnc2)CC1 [1-[(S)-N,O-bis-(3-pyridinesulfonyl)-N-methyl-tyrosyl]-4-(2-methylphenyl)-piperazine]
22 | 955 | CN([C@@H](Cc1ccc(OS(=O)(=O)c2cccnc2)cc1)C(=O)N1CCN(c2ccccc2)CC1)S(=O)(=O)c1cccnc1 [1-[(S)-N,O-bis-(3-pyridinesulfonyl)-N-methyl-tyrosyl]-4-phenyl-piperazine]
23 | 18.5 | CN([C@@H](Cc1ccc(OS(=O)(=O)c2cccc3cnccc23)cc1)C(=O)N1CCN(c2ccccc2F)CC1)S(=O)(=O)c1cccc2cnccc12 [1-[(S)-N,O-bis-(isoquinolinesulfonyl)-N-methyl-tyrosyl]-4-(2-fluorophenyl)-piperazine]]
24 | 70.8 | CC(=O)c1ccc(N2CCN(C(=O)[C@H](Cc3ccc(OS(=O)(=O)c4cccc5cnccc45)cc3)N(C)S(=O)(=O)c3cccc4cnccc34)CC2)cc1 [1-[(S)-N,O-bis-(isoquinolinesulfonyl)-N-methyl-tyrosyl]-4-(4-acetylphenyl)-piperazine]]
25 | 105 | CN([C@@H](Cc1ccc(OS(=O)(=O)c2cccc3cnccc23)cc1)C(=O)N1CCN(c2ccc(Cl)cc2)CC1)S(=O)(=O)c1cccc2cnccc12 [1-[(S)-N,O-bis-(isoquinolinesulfonyl)-N-methyl-tyrosyl]-4-(4-chlorophenyl)-piperazine]]
26 | 97.7 | CN([C@@H](Cc1ccc(OS(=O)(=O)c2cccc3cnccc23)cc1)C(=O)N1CCN(c2ccc(C#N)cc2)CC1)S(=O)(=O)c1cccc2cnccc12 [1-[(S)-N,O-bis-(isoquinolinesulfonyl)-N-methyl-tyrosyl]-4-(4-cyanophenyl)-piperazine]]
27 | 380 | CN([C@@H](Cc1ccc(OS(=O)(=O)c2cccc3cnccc23)cc1)C(=O)N1CCN(C(=O)c2ccc(F)cc2)CC1)S(=O)(=O)c1cccc2cnccc12 [1-[(S)-N,O-bis-(isoquinolinesulfonyl)-N-methyl-tyrosyl]-4-(4-fluorobenzoyl)-piperazine]]
28 | 5.8 | CN([C@@H](Cc1ccc(OS(=O)(=O)c2cccc3cnccc23)cc1)C(=O)N1CCN(Cc2ccc(F)cc2)CC1)S(=O)(=O)c1cccc2cnccc12 [1-[(S)-N,O-bis-(isoquinolinesulfonyl)-N-methyl-tyrosyl]-4-(4-fluorobenzyl)-piperazine]]
29 | 176 | CN([C@@H](Cc1ccc(OS(=O)(=O)c2cccc3cnccc23)cc1)C(=O)N1CCN(c2ccc(I)cc2)CC1)S(=O)(=O)c1cccc2cnccc12 [1-[(S)-N,O-bis-(isoquinolinesulfonyl)-N-methyl-tyrosyl]-4-(4-iodophenyl)-piperazine]]
30 | 12.3 | CN([C@@H](Cc1ccc(OS(=O)(=O)c2cccc3cnccc23)cc1)C(=O)N1CCN(Cc2ccc([N+](=O)[O-])cc2)CC1)S(=O)(=O)c1cccc2cnccc12 [1-[(S)-N,O-bis-(isoquinolinesulfonyl)-N-methyl-tyrosyl]-4-(4-nitrobenzyl)-piperazine]]
31 | 51 | CN([C@@H](Cc1ccc(OS(=O)(=O)c2cccc3cnccc23)cc1)C(=O)N1CCN(c2ccccc2)CC1)S(=O)(=O)c1cccc2cnccc12 [KN62, 1-N,0-(bis(1,5-isoquinolinesulfonyl)-N-methyl-L-tyrosyl)-4-phenylpiperazine]

system: Adriamycin-resistant cells (HL-60); experiment: not given; details: KN62 2 μM (non-cytotoxic), Adriamycin-resistant HL-60 cells; cited from earlier work

Row | Molecule | enhancement of VP-16 induced topoisomerase II-mediated DNA cleavable complex formation
32 | CN([C@@H](Cc1ccc(OS(=O)(=O)c2cccc3cnccc23)cc1)C(=O)N1CCN(c2ccccc2)CC1)S(=O)(=O)c1cccc2cnccc12 [KN62, 1-N,0-(bis(1,5-isoquinolinesulfonyl)-N-methyl-L-tyrosyl)-4-phenylpiperazine] | 2- to 4 fold
